SMILES | logP
CCOP(=O)(OCC)Oc1ccccc1 | 1.64
O=C1C=CC(=NO)C=C1 | 1.08
COc1cccnc1CCCCNc1ncc(Cc2ccc(C)nc2)c(=O)[nH]1 | 2.58
COc1cc(S(C)=O)ccc1-c1nc2nnccc2[nH]1 (stereo not drawn) | 0.23
N#CCc1cccs1 | 1.26
Cc1cc2nc[nH]c2cc1C | 2.35
O=C1CCCCCCN1 | 0.24
CCC(C)(C)C | 3.82
Nc1nc2ccccc2[nH]1 | 0.91
Nc1ccc(-c2ccc(N)c(Cl)c2)cc1Cl | 3.51
COc1ccc(OC)c(N)c1 | 1.2
CCCC(NC(C)=O)C(N)=O (stereo not drawn) | -0.45
CNC(=O)Oc1ccccc1C | 1.46
O=C(O)c1cccc(O)c1 | 1.5
N#CC#N | 0.07
O=C(C=Cc1ccccc1)OCC=Cc1ccccc1 | 4.45
CC(=O)c1cccc(OCC(=O)O)c1 | 0.98
CCNC(=O)NO | -0.76
CC(=O)c1csc2ccccc12 | 2.78
c1ccc(-c2cccnc2)nc1 | 1.46
CSc1cccc(-c2nc(N)nc(N)n2)c1 | 2.16

SMILES | logP
CCCCNCc1cccnc1 | 1.34
CN(C)C(N(C)C)=S(I)c1cccc(I)c1 (stereo not drawn) | 0.29
Cc1nnc2n1-c1sc(Br)cc1C(c1ccccc1Cl)=NC2 | 2.79
Cc1cccc(OCC(O)CNC(C)C)c1 (stereo not drawn) | 1.93
O=[N+]([O-])c1ccc(-c2ccccc2)cc1 | 3.82
CC(C)c1ccc(C(=O)O)cc1 | 3.4
CN(C)c1ccc2c(c1)C(=O)N(S(C)(=O)=O)C2=O | 1.65
CC(=O)OC[C@H]1O[C@@H](n2ncc(=O)[nH]c2=O)[C@H](OC(C)=O)[C@@H]1OC(C)=O | -0.2
C=CCC1(CC(=C)Br)C(=O)NC(=O)N(C)C1=O (stereo not drawn) | 1.78
C#CC1(O)CCCCC1 | 1.73
C#CCCC(C)=O | 0.58
O=c1cc[nH]c2ccccc12 | 0.58
NC(=O)COc1ccccc1 | 0.76
CCCOc1ccc([N+](=O)[O-])c(S(C)(=O)=O)c1 | 1.1
CNC(=S)NCCCCc1cnc[nH]1 | 0.39
COP(=O)(OC)OC=C(Cl)Cl | 1.43
O=C(O)Cc1cccc([N+](=O)[O-])c1 | 1.45
O=C1C(=O)c2ccccc2-c2ccccc21 | 2.52
CCCCCCOC(=O)n1cnc(C)c1CSCCNC(=NC#N)NC | 3.1
N#Cc1cccc2cccnc12 | 1.39
C[C@H](N[C@H](CCc1ccccc1)C(=O)O)C(=O)N1CCC[C@H]1C(=O)O | -0.74

SMILES | logP
COc1ccc(CCNCC(O)COc2cccc(C)c2)cc1OC (stereo not drawn) | 3
NC(Cc1ccc2ccccc2c1)C(=O)O (stereo not drawn) | -0.15
COc1ccc(C(c2ccc(OC)cc2)C(C)[N+](=O)[O-])cc1 (stereo not drawn) | 3.87
O=C(O)Cn1nc2ccccc2n1 | -1.64
NNC(=O)c1ccnc(N)c1 | -0.98
O=C(O)c1cc([N+](=O)[O-])c(Cl)c([N+](=O)[O-])c1 | 2.5
O=I(=O)c1ccccc1 | -1.33
Clc1cc(Cl)c(-c2c(Cl)ccc(Cl)c2Cl)cc1Cl | 7.28
CCCCn1cc(C)c(=O)[nH]c1=O | 0.91
CCN(CC)C(C)CN1c2ccccc2Sc2ccccc21 (stereo not drawn) | 4.77
NCCNC(=O)c1ccccc1 | 0.06
CC(C)C(N)C(=O)O (stereo not drawn) | -2.26
O=NN(CCCl)C(=O)NC1CC2CCC1C2 (stereo not drawn) | 2.98
COC(=O)C(C)NC(C)=O (stereo not drawn) | -0.57
CC(C)C(O)C(C(=O)O)c1ccc(-c2ccccc2)cc1 (stereo not drawn) | 3.84
CC(C)=O | -0.24
C[C@]12CC[C@@H]3c4ccc(O)cc4CC[C@H]3[C@@H]1C[C@@H](O)[C@@H]2O | 2.45
OCCCCc1ccccc1 | 2.35
C[Si](C)(C)c1ccc(O)cc1 | 3.84
OCCN1CCCCC1 | 0.96
N=C(N)c1ccc(N)cc1 | -0.37

SMILES | logP
CCCC(=NOCC)C1C(=O)CC2(CCC(C)C2)OC1=O (stereo not drawn) | 3.66
CCOc1c(NS(=O)(=O)c2ccc(N)cc2)ncnc1OC | 1.03
Cc1ccc2ncccc2c1 | 2.57
Nc1nncc2ccccc12 | 0.82
CCCC(C)O (stereo not drawn) | 1.19
COCOC | 0
NC(=O)Nc1ccc(F)cc1 | 1.04
CCc1cccc(OC(=O)NC)c1 | 2.2
CN(C)c1ccc(NS(=O)(=O)c2ccc(N)cc2)cc1 | 1.57
Cc1[nH]cnc1CSCCNC(=N)NCCSCc1nc[nH]c1C | 1.34
c1ccc2cc3ccccc3cc2c1 | 4.45
Oc1ccc(C(c2ccccc2)c2ccc(O)cc2)cc1 | 4.3
CC(=NO)c1cccs1 | 1.81
COc1cccc(NC(=O)N(CCCl)N=O)c1 | 2.66
OCc1ccc(O)cc1 | 0.25
CCCC(N)C(=O)O (stereo not drawn) | -2.11
CC(C)(C)N | 0.4
CC(=O)C(=Cc1ccc(Cl)cc1)C(C)=O | 2.32
Nc1ncnc2ncn(C(c3ccccc3)c3ccccc3)c12 | 3.19
O=c1[nH]c(=O)c2[nH]cnc2[nH]1 | -0.73

From the OPERA property sets (Mansouri et al. 2018)
